Counter-ions that a name gives are not always drawn.
Target: purified human Factor XIa (Homo sapiens (Human), UniProt P03951)
Experiment: biochemical
Type: biochemical
Settings: TFA salt; read-out: Factor XIa Ki

Chain of purified human Factor XIa (P03951 whole entry, looked up): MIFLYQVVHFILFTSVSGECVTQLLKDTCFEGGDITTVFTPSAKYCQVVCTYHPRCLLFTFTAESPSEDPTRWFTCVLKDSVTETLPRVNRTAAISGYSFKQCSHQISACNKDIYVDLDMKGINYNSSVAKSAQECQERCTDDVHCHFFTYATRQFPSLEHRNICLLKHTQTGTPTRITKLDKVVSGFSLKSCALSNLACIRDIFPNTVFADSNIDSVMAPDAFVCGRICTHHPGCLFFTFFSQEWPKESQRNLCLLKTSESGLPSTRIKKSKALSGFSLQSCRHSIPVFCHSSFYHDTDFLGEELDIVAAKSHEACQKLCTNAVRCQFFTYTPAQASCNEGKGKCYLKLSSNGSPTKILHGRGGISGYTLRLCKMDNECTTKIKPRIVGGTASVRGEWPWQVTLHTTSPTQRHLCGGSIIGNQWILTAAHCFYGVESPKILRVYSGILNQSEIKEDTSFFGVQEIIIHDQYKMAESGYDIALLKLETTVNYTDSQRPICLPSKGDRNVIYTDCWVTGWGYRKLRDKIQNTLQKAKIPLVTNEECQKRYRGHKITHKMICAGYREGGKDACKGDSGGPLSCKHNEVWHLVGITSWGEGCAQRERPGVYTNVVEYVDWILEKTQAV
Chain of purified human Factor XIa (P03951 whole entry partner, looked up): as the sequence (P03951 whole entry, looked up) above

Row | Structure (SMILES) | Ki
1 | CC1CCCC(N2CCC(c3c(F)ccc(Cl)c3F)=CC2=O)c2cc(ccn2)-c2ccc(C#N)cc2NC1=O (stereo in doubt) [Example 23, (14R)-14-[4-(3-Chloro-2,6-difluorophenyl)-6-oxo-1,2,3,6-tetrahydropyridin-1-yl]-10-methyl-9-oxo-8,16-diazatricyclo[13.3.1.0^2,7]nonadeca-1(18),2,4,6,15(19),16-hexaene-5-carbonitrile, TFA salt] | 93.2 nM

Same assay, conditions: read-out: Factor XIa Ki

Row | Structure (SMILES) | Ki
2 | COC(=O)c1ccc2c(c1)-c1cccc(c1)[C@@H](N1CCC(c3c(C(C)=O)ccc(Cl)c3F)=CC1=O)CCC[C@@H](C)C(=O)N2 [Example 172, Methyl (10R,14S)-14-[4-(6-acetyl-3-chloro-2-fluorophenyl)-6-oxo-1,2,3,6-tetrahydropyridin-1-yl]-10-methyl-9-oxo-8-azatricyclo[13.3.1.0^2,7]nonadeca-1(18),2,4,6,15(19),16-hexaene-4-carboxylate] | 140 nM
3 | CC(=O)c1ccc(Cl)c(F)c1C1=CC(=O)N([C@H]2CCCC(C)C(=O)Nc3cc(C(N)=O)ccc3-c3ccnc2c3)CC1 (stereo partly drawn) [Example 34, (14S)-14-[4-(6-Acetyl-3-chloro-2-fluorophenyl)-6-oxo-1,2,3,6-tetrahydropyridin-1-yl]-10-methyl-9-oxo-8,16-diazatricyclo[13.3.1.0^2,7]nonadeca-1(19),2,4,6,15,17-hexaene-5-carboxamide, TFA salt] | 4.17 nM
4 | C[C@@H]1CCC[C@H](N2CCC(c3c(F)ccc(Cl)c3F)=CC2=O)c2cc(ccn2)-c2ccc(NC3O[C@H](CO)[C@@H](O)[C@H](O)[C@@H]3N)cc2NC1=O (stereo partly drawn) [Example 127, (10R,14S)-5-{[(3S,4R,5S,6R)-3-amino-4,5-dihydroxy-6-(hydroxymethyl)oxan-2-yl]amino)-14-[4-(3-chloro-2,6-difluorophenyl)-6-oxo-1,2,3,6-tetrahydropyridin-1-yl]-10-methyl-8,16-diazatricyclo[13.3.1.0^2,7]nonadeca-1(19),2,4,6,15,17-hexaen-9-one] | 3.61 nM
5 | C[C@@H]1CCC[C@H](N2CCC(c3c(F)ccc(Cl)c3F)=CC2=O)c2cc(ccn2)-c2ccc(F)cc2NC1=O [Example 14, (10R,14S)-14-[4-(3-Chloro-2,6-difluorophenyl)-6-oxo-1,2,3,6-tetrahydropyridin-1-yl]-5-fluoro-10-methyl-8,16-diazatricyclo[13.3.1.0^2,7]nonadeca-1(19),2,4,6,15,17-hexaen-9-one, TFA salt] | 34.8 nM
6 | CC(=O)c1ccc(Cl)c(F)c1C1=CC(=O)N([C@H]2CCC[C@@H](C)C(=O)Nc3ccccc3-c3ccnc2c3)CC1 [Example 48, (10R,14S)-14-[4-(6-Acetyl-3-chloro-2-fluorophenyl)-6-oxo-1,2,3,6-tetrahydropyridin-1-yl]-10-methyl-8,16-diazatricyclo[13.3.1.0^2,7]nonadeca-1(19),2,4,6,15,17-hexaen-9-one, TFA salt] | 4.77 nM
7 | C[C@@H]1CCC[C@H](N2CCC(c3c(F)ccc(Cl)c3F)=CC2=O)c2cc(ccn2)-n2nc(C3CC3)cc2NC1=O [Example 223, (9R,13S)-13-[4-(3-chloro-2,6-difluorophenyl)-6-oxo-1,2,3,6-tetrahydropyridin-1-yl]-4-cyclopropyl-9-methyl-2,3,7,15-tetraazatricyclo[12.3.1.0^2,6]octadeca-1(18),3,5,14,16-pentaen-8-one] | 302 nM
8 | C[C@@H]1CCC[C@H](N2CCC(c3c(F)ccc(Cl)c3F)=CC2=O)c2cc(ccn2)-c2ccc(O)cc2NC1=O [Example 18, (10R,14S)-14-[4-(3-Chloro-2,6-difluorophenyl)-6-oxo-1,2,3,6-tetrahydropyridin-1-yl]-5-hydroxy-10-methyl-8,16-diazatricyclo[13.3.1.0^2,7]nonadeca-1(19),2,4,6,15,17-hexaen-9-one, TFA salt] | 1.25 nM
9 | C[C@@H]1CCC[C@H](N2CCC(c3c(F)ccc(Cl)c3F)=CC2=O)c2cc(ccn2)-c2ccc(NC(=O)CC(=O)OC(C)(C)C)cc2NC1=O [Example 87, tert-Butyl 2-{[(10R,14S)-14-[4-(3-chloro-2,6-difluorophenyl)-6-oxo-1,2,3,6-tetrahydropyridin-1-yl]-10-methyl-9-oxo-8,16-diazatricyclo[13.3.1.0^2,7]nonadeca-1(19),2,4,6,15,17-hexaen-5-yl]carbamoyl}acetate, TFA salt] | 17.3 nM
10 | C[C@@H]1CCC[C@H](N2CCC(c3c(C(F)(F)F)ccc(Cl)c3F)=CC2=O)c2cc(ccn2)-c2ccccc2NC1=O [Example 67, (10R,14S)-14-{4-[3-Chloro-2-fluoro-6-(trifluoromethyl)phenyl]-6-oxo-1,2,3,6-tetrahydropyridin-1-yl}-10-methyl-8,16-diazatricyclo[13.3.1.0^2,7]nonadeca-1(19),2(7),3,5,15,17-hexaen-9-one, TFA salt] | 2.98 nM
11 | C[C@@H]1CCC[C@H](N2CCC(c3c(-n4cnnn4)ccc(Cl)c3F)=CC2=O)c2cc(ccn2)-c2ccccc2NC1=O [Example 68, (10R,14S)-14-{4-[3-Chloro-2-fluoro-6-(1H-1,2,3,4-tetrazol-1-yl)phenyl]-6-oxo-1,2,3,6-tetrahydropyridin-1-yl}-10-methyl-8,16-diazatricyclo[13.3.1.0^2,7]nonadeca-1(19),2(7),3,5,15,17-hexaen-9-one, TFA salt] | 0.05 nM
12 | C[C@@H]1CCC[C@H](N2CCC(c3c(F)ccc(Cl)c3F)=CC2=O)c2cc(ccn2)-c2ccc(Nc3nnc(-c4ccco4)o3)cc2NC1=O [Example 103, (10R,14S)-14-[4-(3-Chloro-2,6-difluorophenyl)-6-oxo-1,2,3,6-tetrahydropyridin-1-yl]-5-{[5-(furan-2-yl)-1,3,4-oxadiazol-2-yl]amino}-10-methyl-8,16-diazatricyclo[13.3.1.0^2,7]nonadeca-1(19),2(7),3,5,15,17-hexaen-9-one, TFA salt] | 6.13 nM
13 | C[C@@H]1CCC[C@H](N2CCC(c3c(F)ccc(Cl)c3F)=CC2=O)c2cc(ccn2)-c2cc(I)c(N)cc2NC1=O [Example 61, (10R,14S)-5-Amino-14-[4-(3-chloro-2,6-difluorophenyl)-6-oxo-1,2,3,6-tetrahydropyridin-1-yl]-4-iodo-10-methyl-8,16-diazatricyclo[13.3.1.0^2,7]nonadeca-1(19),2,4,6,15,17-hexaen-9-one, TFA salt] | 24.6 nM
14 | C[C@@H]1CCC[C@H](N2CCC(c3c(F)ccc(Cl)c3F)=CC2=O)c2cc(ccn2)-c2ccc(NS(C)(=O)=O)cc2NC1=O [Example 76, N-[(10R,14S)-14-[4-(3-Chloro-2,6-difluorophenyl)-6-oxo-1,2,3,6-tetrahydropyridin-1-yl]-10-methyl-9-oxo-8,16-diazatricyclo[13.3.1.0^2,7]nonadeca-1(19),2(7),3,5,15,17-hexaen-5-yl]methanesulfonamide, TFA salt] | 7.89 nM
15 | C[C@@H]1CCC[C@H](N2CCC(c3c(F)ccc(Cl)c3F)=CC2=O)c2cc(ccn2)-c2ccc(NC(=O)OCCOC(C)(C)C)cc2NC1=O [Example 53, 2-(tert-Butoxy)ethyl N-[(10R,14S)-14-[4-(3-chloro-2,6-difluorophenyl)-6-oxo-1,2,3,6-tetrahydropyridin-1-yl]-10-methyl-9-oxo-8,16-diazatricyclo[13.3.1.0^2,7]nonadeca-1(19),2,4,6,15,17-hexaen-5-yl]carbamate, TFA salt] | 0.08 nM

Reference: patent US9409908B2 (priority 2012, dated 2016)
